Drawing on US20120208809A1, “9H-PYRROLO[2,3-B: 5,4-C'] DIPYRIDINE AZACARBOLINE DERIVATIVES, PREPARATION THEREOF, AND THERAPEUTIC USE THEREOF” (SANOFI, priority 2009, published 2012), this text covers IC50 and EC50 for five compounds.

In one experiment the target is T1, Pim-1 (Homo sapiens, UniProt P11309).
T1 construct: full-length human recombinant His6-labelled Pim-1, Pim-2 or Pim-3 protein; His6; made in house
Kind of experiment: TR-FRET assay of Pim kinase activity (phosphorylation of Bad Ser112), Pim-1. In kind it is biochemical. The conditions noted are these: ATP 40 μM, read-out: IC50 Pim1. An outline of the steps: (§1)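 Full-length His6-tagged human Pim-1, -2 or -3 phosphorylate full-length His6-Bad at 40 μM ATP; phospho-Ser112 detected by TR-FRET (Eu anti-phosphoBad, APC anti-His6), 665/615 nm ratio. Compounds run at 10 concentrations in duplicate, typically top 30 μM; IC50 from 4-parameter logistic fit.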

A further experiment concerns the target T2, Pim-2 (Homo sapiens, UniProt Q9P1W9).
T2 construct: full-length human recombinant His6-labelled Pim-1, Pim-2 or Pim-3 protein; His6; made in house
Nature of the experiment: TR-FRET assay of Pim kinase activity (phosphorylation of Bad Ser112), Pim-2. Conditions: ATP 40 μM, read-out: IC50 Pim2. In kind it is biochemical. An outline of the steps:
as §1

The target of another experiment is CDK1 (Homo sapiens, UniProt P06493). Nature of the experiment: Biochemical results, IC50 CDK1.
In a further experiment the target is T3, Pim-3 (Homo sapiens, UniProt Q86V86).
T3 construct: full-length human recombinant His6-labelled Pim-1, Pim-2 or Pim-3 protein; His6; made in house
Nature of the experiment: TR-FRET assay of Pim kinase activity (phosphorylation of Bad Ser112), Pim-3. In kind it is biochemical. Conditions: ATP 40 μM, read-out: IC50 Pim3. An outline of the steps: as §1
For orientation: TR-FRET usually uses a lanthanide donor and a delayed reading to cut background.

In another experiment the test system is EOL-1. Nature of the experiment: Cell viability assay (CellTiter-Blue), EOL-1.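 Further: EOL-1 is an acute myeloid eosinophilic leukaemia line not a lymphoma.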 It is filed as cell-based. Conditions: Homo sapiens, EOL1, read-out: EC50 EOL-1 μM (eosinophilic leukaemia), EOL-1 cells, read-out: EC50 EOL-1 μM (lymphoma). Put shortly: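 Cells exposed 48, 72 or 96 h (preferably 72 h) to nine 3-fold dilutions, top dose 10 μM or 30 μM. Viability read by resazurin-to-resorufin fluorescence after 4 h CellTiter-Blue; EC50 is concentration giving 50% reduction in viability/proliferative expansion.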

For the next experiment, the system named is phosphoBAD (JEKO). Nature of the experiment: Level of phosphorylation of Bad by ELISA, JEKO cell line. It is filed as cell-based. Conditions: Homo sapiens, JEKO cells, 3 hours at 37° C. The protocol:
(§2) The activity of the molecules is evaluated on the JEKO or DND-41 cell line by measuring the level of phosphorylation of Bad and the total Bad content, via the ELISA technique.
(§3) The JEKO or DND-41 cells are resuspended at a concentration of 500 000 cells per ml. The cells are then diluted in RPMI-1640 medium containing 20% foetal calf serum. 225 μl of cells are placed in a plate. Serial dilutions of the molecules are then performed (8 points, three-fold dilution, range started at 10 mM). Each dilution point is then diluted to 1/100 in medium. Next, 25 μl of each of the concentrations are added to the cells and then incubated for 3 hours at 37° C.
(§4) 100 μl of the cells are transferred into a plate treated with poly-D-Lysine. The plate is then incubated for 5-10 minutes at 37° C. and then centrifuged for 5 minutes at 1500 rpm. A volume of 100 μl of 8% fixing solution (solution of formaldehyde in PBS buffer) is added to each of the wells. After covering with a self-adhesive film and a lid, the plate is incubated for 20 minutes at room temperature and then stored at 4° C. overnight.
(§5) Next, the liquid is removed and two successive washes are performed with washing buffer. 100 μl of quenching buffer are added, followed by incubating for 15 minutes at room temperature. After washing, 100 μl of […] at room temperature. After washing, 50 μl of primary antibody diluted to 1/250 for pBAD (Cell Signaling Cat#5284) and to 1/500 for Bad (MBL Cat#591) are added to each of the plates. Each plate is incubated for 2 hours at room temperature. After two washes, 50 μl of secondary antibody (diluted to 1/16) are added to the pBAD plate (tebu-bio ref; FE-021) and 50 μl of the HRP-conjugated IgG secondary antibody (Santa Cruz Cat #SC-2004; diluted to 1/1000) are added to the Bad plate. Incubation for 1 hour at room temperature is performed. Four washes with the washing solution are performed, followed by three washes with PBS. Finally, 100 μl of the developing solution are added, followed by incubation for 10 minutes. Finally, 100 μl of the quenching solution are added, before reading at 450 nm.
A general note: An ELISA detects its analyte on a solid surface through an enzyme-linked reagent.

Another experiment addresses PLK1 (Homo sapiens, UniProt P53350). Nature of the experiment: Biochemical results, IC50 PLK1.
The next experiment relates to MV4-11. Kind of experiment: Cell viability assay (CellTiter-Blue), MV4-11. It is filed as cell-based. The conditions noted are these: Homo sapiens, read-out: EC50 MV4-11 μM (acute myeloid leukemia), MV4-11 cells, read-out: EC50 MV4-11 μM (myeloma). Put shortly:
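MOLM-13 or MV4-11 cells incubated 48, 72 or 96 h (preferably 72 h) with nine 3-fold compound dilutions, top dose 10 μM or 30 μM. Viability read by CellTiter-Blue resazurin reduction over 4 h (fluorescence). EC50 is the concentration giving 50% reduction of viability/proliferative expansion.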
(Alamar Blue is a resazurin reagent that responds to reducing activity.)

The next experiment concerns phosphoBAD (DND-41). Nature of the experiment: Level of phosphorylation of Bad by ELISA, DND-41 cell line. The conditions noted are these: Homo sapiens, DND41, DND-41 cells, 3 hours at 37° C. It is filed as cell-based. The protocol: as §2, §3, §4, §5
For a further experiment, the system named is MOLM-13. Nature of the experiment: Cell viability assay (CellTiter-Blue), MOLM-13. In kind it is cell-based. The conditions noted are these: Homo sapiens, read-out: EC50 MOLM-13 μM, MOLM-13 cells, read-out: EC50 MOLM-13 μM (myeloma). The protocol:
The representative compounds of the invention are also screened as regards their effects on cell proliferation and viability, using a variety of tumoral cell lines of human source, representative of different pathological indications. These cell lines include:
In order to measure the viability, the tumour cells are incubated in 96-well or 384-well format for 48, 72 or 96 hours, preferably 72 hours, with a compound of the invention at dilutions of a factor 3, with, in general, nine doses in total, the highest dose being equal to 10 μM or 30 μM. The cell viability is evaluated by adding CellTiter-Blue® (Promega, Madison, Wis., United States) for 4 hours and endpoint readings are taken using a SpectraMax Genmini EM plate reader (Molecular Devices, Sunnyvale, Calif., United States). The CellTiter-Blue® cell viability assay measures the ability of the cells in culture to reduce resazurin to resorufin, the intensity of the fluorescence signal being directly proportional to the number of live cells. The EC50 represents the concentration of compound that leads to a 50% reduction of the viability/proliferative expansion of the cells.

T2 sequence (Q9P1W9 whole entry): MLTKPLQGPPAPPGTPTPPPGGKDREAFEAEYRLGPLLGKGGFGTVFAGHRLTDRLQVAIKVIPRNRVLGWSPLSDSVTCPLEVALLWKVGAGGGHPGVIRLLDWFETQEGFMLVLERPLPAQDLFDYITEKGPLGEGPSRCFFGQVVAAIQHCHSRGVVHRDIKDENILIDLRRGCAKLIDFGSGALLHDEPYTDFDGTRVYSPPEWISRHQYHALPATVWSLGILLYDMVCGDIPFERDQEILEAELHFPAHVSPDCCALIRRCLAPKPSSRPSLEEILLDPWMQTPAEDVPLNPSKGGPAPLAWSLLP
PLK1, sequence (P53350 whole entry, species assumed): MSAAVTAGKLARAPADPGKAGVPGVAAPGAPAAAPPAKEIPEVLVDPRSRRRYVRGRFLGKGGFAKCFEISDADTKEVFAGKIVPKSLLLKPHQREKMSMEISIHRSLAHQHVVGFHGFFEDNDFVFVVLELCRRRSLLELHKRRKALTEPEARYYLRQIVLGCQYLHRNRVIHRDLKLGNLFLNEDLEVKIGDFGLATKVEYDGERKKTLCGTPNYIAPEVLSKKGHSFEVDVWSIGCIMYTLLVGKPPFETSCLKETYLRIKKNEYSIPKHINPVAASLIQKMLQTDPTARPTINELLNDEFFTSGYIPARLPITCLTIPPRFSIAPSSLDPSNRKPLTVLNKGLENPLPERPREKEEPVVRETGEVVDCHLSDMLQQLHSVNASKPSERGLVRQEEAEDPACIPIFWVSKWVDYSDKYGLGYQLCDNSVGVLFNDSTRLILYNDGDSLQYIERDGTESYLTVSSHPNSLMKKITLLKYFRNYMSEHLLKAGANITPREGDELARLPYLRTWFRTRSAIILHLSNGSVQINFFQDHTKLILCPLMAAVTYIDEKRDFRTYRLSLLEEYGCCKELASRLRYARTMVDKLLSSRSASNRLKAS
T1 sequence (P11309 whole entry): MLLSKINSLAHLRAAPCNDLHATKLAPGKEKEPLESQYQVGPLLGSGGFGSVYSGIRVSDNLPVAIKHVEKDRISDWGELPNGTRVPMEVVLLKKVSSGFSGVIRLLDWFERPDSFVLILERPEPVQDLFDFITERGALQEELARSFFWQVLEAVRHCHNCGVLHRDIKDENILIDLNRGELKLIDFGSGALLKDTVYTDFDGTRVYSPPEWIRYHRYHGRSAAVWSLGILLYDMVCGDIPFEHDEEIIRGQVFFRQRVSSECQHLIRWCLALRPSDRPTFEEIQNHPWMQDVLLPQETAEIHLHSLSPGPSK
CDK1, sequence (P06493 whole entry, species assumed): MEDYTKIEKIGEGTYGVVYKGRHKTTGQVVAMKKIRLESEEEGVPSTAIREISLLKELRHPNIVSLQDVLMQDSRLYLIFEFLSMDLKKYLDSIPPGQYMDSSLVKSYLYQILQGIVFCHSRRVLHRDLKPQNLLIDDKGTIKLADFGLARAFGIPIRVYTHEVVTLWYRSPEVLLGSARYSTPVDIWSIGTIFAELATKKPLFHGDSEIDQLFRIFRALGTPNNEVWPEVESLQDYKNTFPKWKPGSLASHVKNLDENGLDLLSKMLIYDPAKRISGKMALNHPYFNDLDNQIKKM
CDK1, sequence (P14635 whole entry partner, species assumed): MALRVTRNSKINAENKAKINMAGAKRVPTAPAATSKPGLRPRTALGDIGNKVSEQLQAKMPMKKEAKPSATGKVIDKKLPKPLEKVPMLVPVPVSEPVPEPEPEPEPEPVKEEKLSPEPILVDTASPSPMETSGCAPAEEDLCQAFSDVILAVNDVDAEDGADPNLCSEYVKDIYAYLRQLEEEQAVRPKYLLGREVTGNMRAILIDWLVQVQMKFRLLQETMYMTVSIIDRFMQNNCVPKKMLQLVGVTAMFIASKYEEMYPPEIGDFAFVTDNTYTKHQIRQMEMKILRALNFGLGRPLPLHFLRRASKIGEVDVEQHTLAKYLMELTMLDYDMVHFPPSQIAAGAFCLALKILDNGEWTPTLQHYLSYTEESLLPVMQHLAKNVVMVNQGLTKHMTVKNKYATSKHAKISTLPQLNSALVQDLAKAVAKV

In general, IC50 refers to the midpoint of a concentration-inhibition curve. What is called EC50 is the concentration at which the effect is half-maximal. With `CN(C)CCNC(=O)c1ccc(-c2ccnc3[nH]c4cnc(-c5cnn(C)c5)cc4c23)cc1` [Example 44], the IC50 at Pim-1 is under 100 nM; at Pim-2, under 100 nM; on CDK1, 100 to 1000 nM; on Pim-3 it was under 100 nM; with phosphoBAD (JEKO) it was 100 to 1000 nM; against PLK1, 100 to 1000 nM. The compound further yielded an IC50 with phosphoBAD (DND-41) of 100 to 1000 nM. Besides, the EC50 in the experiment with EOL-1 and in the experiment on MV4-11 was under 100 nM each time.
As for `CN1CCC(CNC(=O)c2ccc(-c3c(F)cnc4[nH]c5cnc(-c6cccnc6)cc5c34)cc2)CC1` [Example 25, 4-[3-fluoro-6-(pyridin-3-yl)-9H-pyrrolo[2,3-b:5,4-c′]dipyridin-4-yl]-N-[(1-methylpiperidin-4-yl)methyl]benzamide], the IC50 is under 100 nM on Pim-1; 1000 to 5000 nM at Pim-2; 1000 to 5000 nM against CDK1; under 100 nM on Pim-3; 1000 to 5000 nM in the experiment on phosphoBAD (JEKO); 1000 to 5000 nM against PLK1. Also, the IC50 with phosphoBAD (DND-41) lay within 100 to 1000 nM. Further, the EC50 in the experiment with EOL-1 and in the experiment with MV4-11 was 100 to 1000 nM each time.
`CN(C)CCN(C)C(=O)c1ccc(-c2c(F)cnc3[nH]c4cnc(-c5cccnc5)cc4c23)cc1` [Example 23, N-[2-(dimethylamino)ethyl]-4-[3-fluoro-6-(pyridin-3-yl)-9H-pyrrolo[2,3-b:5,4-c′]dipyridin-4-yl]-N-methylbenzamide]: the IC50 at Pim-1 was under 100 nM; on Pim-2, under 100 nM; at CDK1 it was 1000 to 5000 nM; at Pim-3, under 100 nM; in the experiment with phosphoBAD (JEKO) it was 100 to 1000 nM; against PLK1 it was 100 to 1000 nM. Moreover, in the experiment on phosphoBAD (DND-41), the IC50 fell in the range of 100 to 1000 nM.
On to `CN(C)CCNC(=O)c1ccc(-c2c(F)cnc3[nH]c4cnc(-c5cccnc5)cc4c23)cc1` [Example 9, N-[2-(dimethylamino)ethyl]-4-[3-fluoro-6-(pyridin-3-yl)-9H-pyrrolo-[2,3-b:5,4-c′]dipyridin-4-yl]benzamide], for which the IC50 is under 100 nM at Pim-1; under 100 nM on Pim-2; 100 to 1000 nM on CDK1; under 100 nM on Pim-3; 100 to 1000 nM in the experiment with phosphoBAD (JEKO); 100 to 1000 nM at PLK1. Further, the IC50 with phosphoBAD (DND-41) lay within 1000 to 5000 nM. Moreover, the EC50 was under 100 nM in the experiment with EOL-1, 100 to 1000 nM in the experiment with MOLM-13 and under 100 nM in the experiment with MV4-11.
Regarding `CN1CCN(CCNC(=O)c2ccc(-c3c(F)cnc4[nH]c5cnc(-c6cccnc6)cc5c34)cc2)CC1` [Example 24, 4-[3-fluoro-6-(pyridin-3-yl)-9H-pyrrolo[2,3-b:5,4-c′]dipyridin-4-yl]-N-[2-(4-methylpiperazin-1-yl)ethyl]benzamide], the IC50 at Pim-1 is under 100 nM; at Pim-2, 1000 to 5000 nM; on CDK1, 1000 to 5000 nM; on Pim-3 it was under 100 nM; in the experiment with phosphoBAD (JEKO), 100 to 1000 nM; against PLK1, 1000 to 5000 nM. Also, the IC50 in the experiment on phosphoBAD (DND-41) was 1000 to 5000 nM. For the same compound, the EC50 in the experiment with EOL-1 and with MV4-11 was 100 to 1000 nM throughout.
